Results published in ChEMBL document CHEMBL5316285 (J Med Chem, 2023).
pIC50: −log10 of the molar value. Calls of active or inactive are those of the source. No cut-off for these calls is given here.

Legend:
[1] = Toxicity in nude mouse xenografted with human A2780 cells assessed as loss in body weight at 2 uM/Kg, IV once every 3 days upto 21 days; settings: 504 h, time 21 day
[2] = Retinal toxicity in nude mouse xenografted with human A2780 cells at 2 uM/Kg, IV once every 3 days upto 21 days by microscopic analysis; settings: 504 h, time 21 day
[3] = target: T1, Nicotinamide phosphoribosyltransferase (Homo sapiens, UniProt P43490); experiment: Inhibition of NAMPT (unknown origin) using NAM as substrate preincubated for 5 mins followed by substrate addition measured after 15 mins in presence of ATP by fluorescence based microplate reader analysis
Target sequence in this assay (P43490 whole entry): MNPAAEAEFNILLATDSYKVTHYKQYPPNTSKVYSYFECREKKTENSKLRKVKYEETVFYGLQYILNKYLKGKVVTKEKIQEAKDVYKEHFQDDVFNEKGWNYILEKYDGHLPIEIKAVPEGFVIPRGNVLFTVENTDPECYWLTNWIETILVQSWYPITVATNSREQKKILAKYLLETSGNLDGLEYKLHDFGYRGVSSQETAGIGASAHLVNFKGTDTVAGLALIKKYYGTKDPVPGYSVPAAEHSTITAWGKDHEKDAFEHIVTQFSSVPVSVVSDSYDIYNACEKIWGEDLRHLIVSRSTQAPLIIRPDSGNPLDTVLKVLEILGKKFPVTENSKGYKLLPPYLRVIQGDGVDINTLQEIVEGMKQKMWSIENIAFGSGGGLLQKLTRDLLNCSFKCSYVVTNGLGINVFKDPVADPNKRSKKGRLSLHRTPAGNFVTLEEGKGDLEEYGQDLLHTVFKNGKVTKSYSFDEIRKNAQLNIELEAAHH

[4] = target: T2, von Hippel-Lindau disease tumor suppressor/Nicotinamide phosphoribosyltransferase (Homo sapiens, UniProt P43490+P40337); experiment: Protac activity at VHL/NAMPT in human A2780 cells assessed as degradation of NAMPT using NAM as substrate preincubated for 5 mins followed by substrate addition measured after 5 mins in presence of ATP by luminesence based microplate reader analysis; type: cell-based
Target sequence in this assay (P43490 whole entry): as above
Target sequence in this assay (P40337 whole entry): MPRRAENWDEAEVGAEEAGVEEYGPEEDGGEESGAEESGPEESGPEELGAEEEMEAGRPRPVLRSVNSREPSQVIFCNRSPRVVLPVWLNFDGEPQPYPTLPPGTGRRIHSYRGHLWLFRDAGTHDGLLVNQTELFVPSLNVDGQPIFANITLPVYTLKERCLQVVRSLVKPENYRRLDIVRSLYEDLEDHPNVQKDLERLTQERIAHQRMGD

[5] = system: A2780; experiment: Antiproliferative activity against human A2780 cells incubated for 72 hrs in carbon-dioxide atmosphere measured by cell counting kit-8 method; type: functional, cell-based; settings: A2780, 72 h
[6] = target: T2, von Hippel-Lindau disease tumor suppressor/Nicotinamide phosphoribosyltransferase; experiment: Protac activity at VHL/NAMPT in human A2780 cells assessed as reduction of NAMPT protein level at 10 nM measured after 24 hrs by Western blotting analysis; type: cell-based
Target sequence in this assay (P40337 whole entry, looked up): as the sequence (P40337 whole entry) above
Target sequence in this assay (P43490 whole entry, looked up): as the sequence (P43490 whole entry) above

[7] = target: T2, von Hippel-Lindau disease tumor suppressor/Nicotinamide phosphoribosyltransferase; experiment: Protac activity at VHL/NAMPT in human A2780 cells assessed as induction of NAMPT degradation measured at 0.005 to 10 microM after 24 hrs by Western blotting analysis; type: cell-based; settings: dose 0.005-10 µM
Target sequence in this assay (P40337 whole entry, looked up): as the sequence (P40337 whole entry) above
Target sequence in this assay (P43490 whole entry, looked up): as the sequence (P43490 whole entry) above

[8] = target: T2, von Hippel-Lindau disease tumor suppressor/Nicotinamide phosphoribosyltransferase; experiment: Protac activity at VHL/NAMPT in human A2780 cells assessed as reduction of NAMPT protein level at greater than 0.37 uM measured after 24 hrs by Western blotting analysis; type: cell-based
Target sequence in this assay (P40337 whole entry, looked up): as the sequence (P40337 whole entry) above
Target sequence in this assay (P43490 whole entry, looked up): as the sequence (P43490 whole entry) above

[9] = system: CT26; experiment: Antiproliferative activity against mouse CT26 cells; type: functional, cell-based
[10] = target: T2, von Hippel-Lindau disease tumor suppressor/Nicotinamide phosphoribosyltransferase; experiment: Protac activity at VHL/NAMPT in human A2780 cells assessed as induction of NAMPT degradation measured at 10 nM; type: cell-based; settings: time <= 24.0 hrs, TDE = time-dependent effect
Target sequence in this assay (P40337 whole entry, looked up): as the sequence (P40337 whole entry) above
Target sequence in this assay (P43490 whole entry, looked up): as the sequence (P43490 whole entry) above

[11] = target: T1, Nicotinamide phosphoribosyltransferase; experiment: Binding affinity to NAMPT in human A2780 cells incubated at 10 uM measured from 63 to 75 degreeC for 7 hrs by cellular thermal shift assay; type: cell-based
Target sequence in this assay (P43490 whole entry, looked up): as the sequence (P43490 whole entry) above

[12] = target: von Hippel-Lindau disease tumor suppressor (Homo sapiens) (UniProt P40337); experiment: Binding affinity to VHL in human A2780 cells incubated at 10 uM measured from 63 to 75 degreeC for 7 hrs by cellular thermal shift assay; type: cell-based
Sequence of von Hippel-Lindau disease tumor suppressor (Homo sapiens) (P40337 whole entry, looked up): as the sequence (P40337 whole entry) above

[13] = target: T1, Nicotinamide phosphoribosyltransferase; experiment: Competitive binding activity at NAMPT in human A2780 cells assessed as blocking of NAMPT degradation pretreated with 200 nM of 1-(4-(piperidin-1-ylsulfonyl)phenyl)-3-(pyridin-3-ylmethyl)thiourea for 2 hrs followed by compound addition at 10 nM measured after 24 hrs by Western blotting analysis; type: cell-based
Target sequence in this assay (P43490 whole entry, looked up): as the sequence (P43490 whole entry) above

[14] = target: T1, Nicotinamide phosphoribosyltransferase; experiment: Competitive binding activity at NAMPT in human A2780 cells assessed as blocking of NAMPT degradation pretreated with 100 uM of (2S,4R)-1-((S)-2-acetamido-3,3-dimethylbutanoyl)-4-hydroxy-N-((S)-1-(4-(4-methylthiazol-5-yl)phenyl)ethyl)pyrrolidine-2-carboxamide for 2 hrs followed by compound addition at 10 nM measured after 24 hrs by Western blotting analysis; type: cell-based
Target sequence in this assay (P43490 whole entry, looked up): as the sequence (P43490 whole entry) above

[15] = target: T1, Nicotinamide phosphoribosyltransferase; experiment: Competitive binding activity at NAMPT in human A2780 cells assessed as blocking of NAMPT degradation pretreated with carfilzomib for 2 hrs followed by compound addition at 10 nM measured after 24 hrs by Western blotting analysis; type: cell-based
Target sequence in this assay (P43490 whole entry, looked up): as the sequence (P43490 whole entry) above

[16] = target: T1, Nicotinamide phosphoribosyltransferase; experiment: Competitive binding activity at NAMPT in human A2780 cells assessed as blocking of NAMPT degradation pretreated with MLN4924 for 2 hrs followed by compound addition at 10 nM measured after 24 hrs by Western blotting analysis; type: cell-based
Target sequence in this assay (P43490 whole entry, looked up): as the sequence (P43490 whole entry) above

[17] = target: T1, Nicotinamide phosphoribosyltransferase; experiment: Competitive binding activity at NAMPT in human A2780 cells assessed as blocking of NAMPT degradation pretreated with epoxomicin for 2 hrs followed by compound addition at 10 nM measured after 24 hrs by Western blotting analysis; type: cell-based
Target sequence in this assay (P43490 whole entry, looked up): as the sequence (P43490 whole entry) above

[18] = target: T1, Nicotinamide phosphoribosyltransferase; experiment: Competitive binding activity at NAMPT in human A2780 cells assessed as blocking of NAMPT degradation pretreated with MG132 for 2 hrs followed by compound addition at 10 nM measured after 24 hrs by Western blotting analysis; type: cell-based
[19] = system: A2780; experiment: Downregulation of NAD+ in human A2780 cells treated upto 1000 nM for 24 hrs by chromogen based assay; type: functional, cell-based
[20] = Half life in Sprague-Dawley rat plasma at 5 mg/kg, iv by LC-MS/MS analysis; type: ADME, organism-based
[21] = Half life in mouse plasma at 5 mg/kg, iv by LC-MS/MS analysis; type: ADME, organism-based
[22] = Cmax in Sprague-Dawley rat plasma at 5 mg/kg, iv after 0.083 to 24 hrs by LC-MS/MS analysis; type: ADME, organism-based; design: dose 5 mg/kg, time upper 24 hrs, time lower 0.083 hrs, route iv
[23] = Cmax in mouse plasma at 5 mg/kg, iv after 0.083 to 24 hrs by LC-MS/MS analysis; type: ADME, organism-based; design: time upper 24 hrs, dose 5 mg/kg, time lower 0.083 hrs, route iv
[24] = AUC in Sprague-Dawley rat plasma at 5 mg/kg, iv after 0.083 to 24 hrs by LC-MS/MS analysis; type: ADME, organism-based; design: dose 5 mg/kg, time upper 24 hrs, time lower 0.083 hrs, route iv
[25] = AUC in mouse plasma at 5 mg/kg, iv after 0.083 to 24 hrs by LC-MS/MS analysis; type: ADME, organism-based; design: time lower 0.083 hrs, dose 5 mg/kg, time upper 24 hrs, route iv
[26] = Cmax in Sprague-Dawley rat plasma at 20 mg/kg, IP after 0.083 to 24 hrs by LC-MS/MS analysis; type: ADME, organism-based; design: time lower 0.083 hrs, dose 20 mg/kg, time upper 24 hrs, route ip
[27] = Cmax in mouse plasma at 20 mg/kg, IP after 0.083 to 24 hrs by LC-MS/MS analysis; type: ADME, organism-based; design: time upper 24 hrs, time lower 0.083 hrs, dose 20 mg/kg, route ip
[28] = system: A2780; experiment: Antitumor activity against human A2780 cells xenografted in nude mouse assessed as tumor growth inhibition at 2 uM/Kg, IV once every 3 days upto 21 days relative to control; type: functional; settings: time 21 day, at 2 µmol/kg
[29] = Toxicity in nude mouse xenografted with human A2780 cells assessed as pathological damage in heart at 2 uM/Kg, IV once every 3 days upto 21 days by hematoxylin and eosin staining analysis; type: tissue-based; settings: 504 h, time 21 day
[30] = Toxicity in nude mouse xenografted with human A2780 cells assessed as pathological damage in liver at 2 uM/Kg, IV once every 3 days upto 21 days by hematoxylin and eosin staining analysis; type: tissue-based; settings: 504 h, time 21 day
[31] = Toxicity in nude mouse xenografted with human A2780 cells assessed as pathological damage in spleen at 2 uM/Kg, IV once every 3 days upto 21 days by hematoxylin and eosin staining analysis; type: tissue-based; settings: 504 h, time 21 day
[32] = Toxicity in nude mouse xenografted with human A2780 cells assessed as pathological damage in lung at 2 uM/Kg, IV once every 3 days upto 21 days by hematoxylin and eosin staining analysis; type: tissue-based; settings: 504 h, time 21 day
[33] = Toxicity in nude mouse xenografted with human A2780 cells assessed as pathological damage in kidney at 2 uM/Kg, IV once every 3 days upto 21 days by hematoxylin and eosin staining analysis; type: tissue-based; settings: 504 h, time 21 day
[34] = system: A2780; experiment: Antitumor activity against human A2780 cells xenografted in nude mouse assessed as necrotic tumor cells at 2 uM/Kg, IV once every 3 days upto 21 days relative by hematoxylin and eosin staining analysis; type: functional, cell-based; settings: time 21.0 day
[35] = system: A2780; experiment: Antitumor activity against human A2780 cells xenografted in nude mouse assessed as reduction in Ki67 expression in tumor tissue at 2 uM/Kg, IV once every 3 days upto 21 days relative by immuno histochemical analysis; type: functional, cell-based; settings: time 21.0 day
[36] = system: A2780; experiment: Antitumor activity against human A2780 cells xenografted in nude mouse assessed as reduction in NAMPT protein level in tumor tissue at 2 uM/Kg, IV after 3 days by immuno histochemical analysis; type: functional, cell-based; settings: time 3.0 day
[37] = Half life in Sprague-Dawley rat plasma at 20 mg/kg, IP by LC-MS/MS analysis; type: ADME, organism-based
[38] = Tmax in Sprague-Dawley rat plasma at 5 mg/kg, iv by LC-MS/MS analysis; type: ADME, organism-based; settings: time 0.083-24 hrs
[39] = Tmax in Sprague-Dawley rat plasma at 20 mg/kg, IP by LC-MS/MS analysis; type: ADME, organism-based
[40] = AUC in Sprague-Dawley rat plasma at 20 mg/kg, IP after 0.083 to 24 hrs by LC-MS/MS analysis; type: ADME, organism-based; design: dose 20 mg/kg, time 0.083-24 hrs, route ip
[41] = MRT in Sprague-Dawley rat plasma at 20 mg/kg, IP after 0.083 to 24 hrs by LC-MS/MS analysis; type: ADME, organism-based; settings: time 0.083-24 hrs
[42] = MRT in Sprague-Dawley rat plasma at 5 mg/kg, iv after 0.083 to 24 hrs by LC-MS/MS analysis; type: ADME, organism-based; settings: time 0.083-24 hrs

pIC50 [3]: 6.82
DC50 [4]: < 0.17 nM
pIC50 [5]: 8.82
Activity [6]: Active
Activity [7]: Dose-Dependent Effect
Activity [8]: inactive
pIC50 [9]: 6.17
Activity [10]: Tde
Activity [11]: Active
Activity [12]: Active
Activity [13]: Active
Activity [14]: Active
Activity [15]: Active
Activity [16]: Active
Activity [17]: Active
Activity [18]: Active
half-life [20]: 6.53 h
half-life [21]: 3.72 h
Cmax [22]: 3190 ng/mL
Cmax [23]: 1080 ng/mL
AUC [24]: 1310 ng·h/mL
AUC [25]: 477 ng·h/mL
Cmax [26]: 250 ng/mL
Cmax [27]: 417 ng/mL
half-life [37]: 5.41 h
Tmax [38]: 4.8 min
Tmax [39]: 5 h
AUC [40]: 1740 ng·h/mL
MRT [41]: 7.51 h
MRT [42]: 4.45 h
SMILES: Cc1ncsc1-c1ccc([C@H](C)NC(=O)[C@@H]2C[C@@H](O)CN2C(=O)[C@@H](NC(=O)CCCCCCCCN2CCN(S(=O)(=O)c3ccc(NC(=O)NCc4cccnc4)cc3)CC2)C(C)(C)C)cc1
Activity [1]: Non-Toxic
Activity [2]: Non-Toxic
Activity [19]: Active
TGI [28]: 88.1%
Activity [29]: Non-Toxic
Activity [30]: Non-Toxic
Activity [31]: Non-Toxic
Activity [32]: Non-Toxic
Activity [33]: Non-Toxic
Activity [34]: Active
Activity [35]: Active
Activity [36]: Active
